Experimental data published in PMC7917093, “Multiomics-based dissection of citrus flavonoid metabolism using a Citrus reticulata × Poncirus trifoliata population” (Horticulture Research, 2021).

Experiments:
[1] = system: T1, CitF3H (P. trifoliata allele); assay: LC-MS product assay, Michaelis-Menten fit; assay type: biochemical, Citrus trifoliata; conditions: 0-1000 μM naringenin; 2-oxoglutarate 10 mM, FeSO4 0.25 mM, ascorbate 10 mM; Tris-HCl pH 8.5; 35 °C
T1 construct: gene F3H; natural allele with five amino acid differences and one indel versus C. reticulata

[2] = system: T2, CitF3H (C. reticulata allele); assay: LC-MS product assay, Michaelis-Menten fit; assay type: biochemical, Citrus reticulata; conditions: 0-1000 μM naringenin; 2-oxoglutarate 10 mM, FeSO4 0.25 mM, ascorbate 10 mM; Tris-HCl pH 8.5; 35 °C
T2 construct: gene F3H

`O=C1C[C@@H](c2ccc(O)cc2)Oc2cc(O)cc(O)c21` [naringenin] was tested, and the Km [1] was 7.61 µM and the Km [2] was 121 µM.
